Results published in patent US20110212899A1, “Corneal Neuritogenesis Promoter Containing Pacap and Its Derivative” (priority 2004, published 2011).
Where no end group is shown, it is not given here.

What was measured:
Type in all cases: cell-based
[1] = test system: excised rabbit lacrimal gland; test: Promoting effect on protein secretion from an excised lacrimal gland (1) (Test Example 3)
Method: A lacrimal gland was excised from a rabbit and then treated with PACAP27 or peptide 17. Pharmacological effects of PACAP27 and peptide 17 on an increase in the protein secretion amount were examined.
(a) Purified water was added to sodium chloride (137.92 g), potassium chloride (7.01 g), calcium chloride dihydrate (3.53 g) and magnesium chloride hexahydrate (1.2 g) so that the total volume was 1000 mL (solution 1). Purified water was added to potassium dihydrogen phosphate (8.17 g) so that the total volume was 500 mL (solution 2). The solution 1 (50 mL) and the solution 2 (10 mL) were added to 900 mL of purified water, and in the resulting solution were dissolved glucose (2.07 g) and sodium hydrogen carbonate (2.1 g). The total volume of the resulting solution was adjusted to 1000 mL (pH about 7.4), which was used as a culture solution. A mixed gas of 95% oxygen and 5% carbon dioxide was allowed to pass through the culture solution.
(b) PACAP27 or peptide 17 was dissolved in the culture solution at a concentration of 10^−7 M, which was used as a test substance solution. Carbachol (Nacalai Tesque, Inc.), which has muscarinic agonist activity, was dissolved in the culture solution at a concentration of 10^−4 M, which was used as a control of the drugs (the carbachol-addition group). […]
(a) The section sample in a stationary state was incubated at 37° C. for 20 minutes in 0.5 mL of a fresh culture solution. […] The amount of protein in the culture solution was determined by using a protein staining reagent (DC Protein Assay Reagent, Bio Rad), and was converted into the protein secretion amount per 1 mg of the wet sample. […]
(b) The culture solution of the section sample after incubation obtained in (a) was replaced by 0.5 mL of the test substance solution. […] The protein amount in the collected solution was determined by using the protein staining reagent. In the same way, as a control group, the section sample was incubated in the culture solution which was replaced by a fresh culture solution and the protein amount in the culture solution was determined.

[2] = test system: excised rabbit lacrimal gland; test: Promoting effect on protein secretion from an excised lacrimal gland (2) (Test Example 5); settings: carbachol 10^−4 M, incubated 60 minutes; p<0.05
Method: A lacrimal gland was excised from a rabbit and incubated in a solution containing PACAP27 or peptide 24, and changes in the amount of secreted protein were examined as lacrimal gland stimulating activity.
Japanese white rabbits with a body weight of 1.5 to 2.0 kg purchased from Fukusaki Rabbit warren were used. The animals were each put in separate cages placed in a room wherein a temperature of 23±3° C. and a humidity of 55±10% were kept and a light was on for 12 hours per day (lighting at 8:00 and lights-out at 20:00), and raised after arrival until the final day of the test. The animals were given 100 g of solid feed (Labo R Stock, Nosan Corporation) per day, and could freely have tap water.
PACAP27 and peptide 24 were used as test substances. Test substance solutions were prepared as follows. […]
The section sample in a stationary state was incubated in 0.5 mL of a fresh incubation solution at 37° C. for 20 minutes under a mixed gas atmosphere of 95% oxygen and 5% carbon dioxide. After completion of the incubation, the incubation solution was collected, and the protein amount in the solution was determined by using a protein staining reagent (DC Protein Assay Reagent, Bio Rad). […] The incubation solution was collected, and the protein amount in the incubation solution was determined. […]

[3] = test system: cultured rabbit trigeminal nerve cells; test: Promoting effect on neuritogenesis in cultured rabbit trigeminal nerve cells (1) (Test Example 1); settings: final concentration 1 μM, cultured for 48 hours; control group 24.1%; p<0.001 vs non-addition group
From the text: Japanese white rabbits (2 to 3 days old) purchased from Kitayama Labes Co., Ltd. were used.
Rabbit trigeminal nerve cells were isolated according to a method reported by Chan et al. (Kwan Y. Chan and Richard H. Haschke, Exp. Eye Res. 41: 687-699, 1985). The rabbit was subjected to cardiac perfusion with physiological saline under ether anesthesia. A trigeminal ganglion was excised from the rabbit, and then dispersed in a nerve dispersion liquid (Sumitomo Bakelite Co., Ltd.) to prepare trigeminal nerve cells. The trigeminal nerve cells were cultured in Neurobasal medium (Invitrogen Corp) supplemented with B27 Supplement (Invitrogen Corp; final concentration: 2% v/v) and L-glutamine (Invitrogen Corp; final concentration: 1 mM) under 5% CO2 and 95% air at a humidity of 100% and a temperature of 37° C. […]
For evaluating neuritogenesis in the cultured rabbit trigeminal nerve cells, the lengths of the longest neurite and the major axis of the cell body in the stained cell images scanned into the computer were measured using image analysis software (Image-Pro Plus ver. 4.0, Planetron, Inc.) The cells in 3 wells for each group were measured. […] The proportion (%) of the neurite forming cells in the total cell number was calculated (Otori, Y., Wei, J. Y., Barnstable, C. J., Invest. Opthalmol. Vis. Sic., (1998)39, 972-981).

Row | Compound | protein secretion rate of excised lacrimal gland ([1]; carbachol 10^−4 M (control of the drugs)) | protein secretion rate of excised lacrimal gland compared with control group [2] | proportion (%) of the neurite forming cells in the total cell number [3] | duration of the action of the drug compared with the carbachol-addition group ([1]; 10^−7 M vs carbachol 10^−4 M) | protein secretion rate of excised lacrimal gland ([1]; 10^−7 M, at 20 minutes after initiation of the treatment and thereafter, p<0.05 vs control)
1 | C[N+](C)(C)CCOC(N)=O [carbachol, Carbachol, reference compound] | significant increase | significant increase |  |  | 
2 | His-Ser-Asp-Ala-Ile-Phe-Thr-Asp-Ser-Tyr-Ser-Arg-Tyr-Arg-Arg-Gln-Leu-Ala-Val-Arg-Arg-Tyr-Leu-Ala-Ala-Val-Leu-Gly-Arg-Arg-OH (HSDAIFTDSYSRYRRQLAVRRYLAAVLGRR-OH) [Peptide 17] |  |  | 54.1% | lasted longer | significantly increased
